Data reported in patent US6737383B1, “Herbicidal oxadiazolidines” (priority 1999, dated 2004).

Tests used:
giant foxtail = experiment: Test B pre/postemergence giant foxtail; format: in vivo, Setaria faberii
Outline: (§1)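 Test chemicals in a non-phytotoxic solvent mixture with surfactant were sprayed preemergence onto planted seeds and postemergence onto plants 2 to 18 cm tall (1- to 4-leaf stage). After twelve to sixteen days in a greenhouse, injury was visually rated against untreated controls from 0 (no effect) to 10 (complete control).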

bamyardgrass = experiment: Test B flood test barnyardgrass; format: in vivo, Echinochloa crus-galli
Outline: (§2)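 Flood test on plants grown to the 2-leaf stage; treated plants kept in greenhouse twelve to sixteen days, then visually rated against controls on a 0 (no effect) to 10 (complete control) scale.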

purple nutsedge = experiment: Test B pre/postemergence purple nutsedge; format: in vivo, Cyperus rotundus
Outline: as §1

corn = experiment: Test B pre/postemergence corn; format: in vivo, Zea mays
Outline: as §1

wheat = experiment: Test B pre/postemergence wheat; format: in vivo, Triticum aestivum
Outline: as §1

duck salad = experiment: Test B flood test duck salad; format: in vivo, Heteranthera limosa
Outline: as §2

soybean = experiment: Test B pre/postemergence soybean; format: in vivo, Glycine max
Outline: as §1

sugar beet = experiment: Test B pre/postemergence sugar beet; format: in vivo, Beta vulgaris
Outline: as §1

wild oat = experiment: Test B pre/postemergence wild oat; format: in vivo, Avena fatua
Outline: as §1

rice = experiment: Test B flood test rice; format: in vivo, Oryza sativa
Outline: as §2

cocklebur = experiment: Test B pre/postemergence cocklebur; format: in vivo, Xanthium strumarium
Outline: as §1

rape = experiment: Test B pre/postemergence rape; format: in vivo, Brassica napus
Outline: as §1

pigweed = experiment: Test B pre/postemergence pigweed; format: in vivo, Amaranthus retroflexus
Outline: as §1

morningglory = experiment: Test B pre/postemergence morningglory; format: in vivo, Ipomoea hederacea
Outline: as §1

velvetleaf = experiment: Test B pre/postemergence velvetleaf; format: in vivo, Abutilon theophrasti
Outline: as §1

crabgrass = experiment: Test B pre/postemergence crabgrass; format: in vivo, Digitaria sanguinalis
Outline: as §1

[1] = Postemergence, Rate 125 g/ha, scale 0 to 10, 0 is no effect, 10 is complete control
[2] = Postemergence, Rate 250 g/ha, scale 0 to 10, 0 is no effect, 10 is complete control
[3] = Postemergence, Rate 500 g/ha, scale of 0 to 10 where 0 is no effect and 10 is complete control
[4] = Preemergence, Rate 62 g/ha, scale 0 to 10 (0 no effect, 10 complete control)
[5] = Preemergence, Rate 125 g/ha, scale of 0 to 10 where 0 is no effect and 10 is complete control
[6] = Preemergence, Rate 250 g/ha, scale of 0 to 10 where 0 is no effect and 10 is complete control
[7] = Preemergence, Rate 500 g/ha, scale of 0 to 10 where 0 is no effect and 10 is complete control
[8] = Rate 62 g/ha, Postemergence, scale of 0 to 10 where 0 is no effect and 10 is complete control
[9] = Rate 62 g/ha, flood test species, Pre-emergence, visual evaluation after twelve to sixteen days
[10] = Rate 125 g/ha, under heading Pre-emergence, flood test species, visual evaluation after twelve to sixteen days
[11] = Rate 250 g/ha, Pre-emergence, flood-test species, scale 0 to 10, 0 is no effect, 10 is complete control
[12] = Rate 500 g/ha, Pre-emergence, flood test species, scale 0 to 10 (0 no effect, 10 complete control)

CC(C)N(C(=O)n1oc(=O)[nH]c1=O)c1ccc(F)cc1F [Compound 391]
0: Plant response rating, Giant foxtail (giant foxtail; [1]) | Plant response rating, Giant foxtail (giant foxtail; [2]) | Giant foxtail plant response rating (giant foxtail; [3]) | Plant response rating, Giant foxtail (giant foxtail; [4]) | Plant response rating, Giant foxtail (giant foxtail; [5]) | Giant foxtail plant response rating (giant foxtail; [6]) | Giant foxtail plant response rating (giant foxtail; [7]) | Giant foxtail plant response rating (giant foxtail; [8]) | Plant response rating, Barnyardgrass (0 to 10 scale, 0 is no effect, 10 is complete control) (bamyardgrass; [9]) | Barnyardgrass plant response rating (0 to 10 scale, 0 is no effect, 10 is complete control) (bamyardgrass; [10]) | Barnyardgrass plant response rating (bamyardgrass; [11]) | Barnyardgrass plant response rating (bamyardgrass; [12]) | Plant response rating, Nutsedge (purple nutsedge; [2]) | Nutsedge plant response rating (purple nutsedge; [3]) | Plant response rating, Nutsedge (purple nutsedge; [4]) | Plant response rating, Nutsedge (purple nutsedge; [5]) | Nutsedge plant response rating (purple nutsedge; [6]) | Nutsedge plant response rating (purple nutsedge; [7]) | Nutsedge plant response rating (purple nutsedge; [8]) | Plant response rating, Corn (corn; [1]) | Plant response rating, Corn (corn; [2]) | Corn plant response rating (corn; [3]) | Plant response rating, Corn (corn; [4]) | Plant response rating, Corn (corn; [5]) | Corn plant response rating (corn; [6]) | Corn plant response rating (corn; [7]) | Corn plant response rating (corn; [8]) | Plant response rating, Wheat (wheat; [2]) | Wheat plant response rating (wheat; [3]) | Plant response rating, Wheat (wheat; [4]) | Plant response rating, Wheat (wheat; [5]) | Wheat plant response rating (wheat; [6]) | Wheat plant response rating (wheat; [7]) | Wheat plant response rating (wheat; [8]) | Plant response rating, Ducksalad (0 to 10 scale, 0 is no effect, 10 is complete control) (duck salad; [9]) | Ducksalad plant response rating (0 to 10 scale, 0 is no effect, 10 is complete control) (duck salad; [10]) | Ducksalad plant response rating (duck salad; [11]) | Ducksalad plant response rating (duck salad; [12]) | Plant response rating, Soybean (soybean; [2]) | Soybean plant response rating (soybean; [3]) | Plant response rating, Soybean (soybean; [4]) | Plant response rating, Soybean (soybean; [5]) | Soybean plant response rating (soybean; [6]) | Soybean plant response rating (soybean; [7]) | Soybean plant response rating (soybean; [8]) | Plant response rating, Sugarbeets (sugar beet; [2]) | Sugarbeets plant response rating (sugar beet; [3]) | Plant response rating, Sugarbeets (sugar beet; [4]) | Plant response rating, Sugarbeets (sugar beet; [5]) | Sugarbeets plant response rating (sugar beet; [6]) | Sugarbeets plant response rating (sugar beet; [7]) | Sugarbeets plant response rating (sugar beet; [8]) | Plant response rating, Wild oats (wild oat; [2]) | Wild oats plant response rating (wild oat; [3]) | Plant response rating, Wild oats (wild oat; [4]) | Plant response rating, Wild oats (wild oat; [5]) | Wild oats plant response rating (wild oat; [6]) | Wild oats plant response rating (wild oat; [7]) | Wild oats plant response rating (wild oat; [8]) | Plant response rating, Rice (0 to 10 scale, 0 is no effect, 10 is complete control) (rice; [9]) | Rice plant response rating (0 to 10 scale, 0 is no effect, 10 is complete control) (rice; [10]) | Rice plant response rating (rice; [11]) | Rice plant response rating (rice; [12]) | Plant response rating, Cocklebur (cocklebur; [1]) | Plant response rating, Cocklebur (cocklebur; [2]) | Cocklebur plant response rating (cocklebur; [3]) | Plant response rating, Cocklebur (cocklebur; [4]) | Plant response rating, Cocklebur (cocklebur; [5]) | Cocklebur plant response rating (cocklebur; [6]) | Cocklebur plant response rating (cocklebur; [7]) | Cocklebur plant response rating (cocklebur; [8]) | Plant response rating, Rape (rape; [2]) | Rape plant response rating (rape; [3]) | Plant response rating, Rape (rape; [4]) | Plant response rating, Rape (rape; [5]) | Rape plant response rating (rape; [6]) | Rape plant response rating (rape; [7]) | Rape plant response rating (rape; [8]) | Plant response rating, Redroot pigweed (pigweed; [2]) | Redroot pigweed plant response rating (pigweed; [3]) | Plant response rating, Redroot pigweed (pigweed; [4]) | Plant response rating, Redroot pigweed (pigweed; [5]) | Redroot pigweed plant response rating (pigweed; [6]) | Redroot pigweed plant response rating (pigweed; [7]) | Redroot pigweed plant response rating (pigweed; [8]) | Plant response rating, Morningglory (morningglory; [2]) | Morningglory plant response rating (morningglory; [3]) | Plant response rating, Morningglory (morningglory; [4]) | Plant response rating, Morningglory (morningglory; [5]) | Morningglory plant response rating (morningglory; [6]) | Morningglory plant response rating (morningglory; [7]) | Morningglory plant response rating (morningglory; [8]) | Plant response rating, Velvetleaf (velvetleaf; [2]) | Velvetleaf plant response rating (velvetleaf; [3]) | Plant response rating, Velvetleaf (velvetleaf; [4]) | Plant response rating, Velvetleaf (velvetleaf; [5]) | Velvetleaf plant response rating (velvetleaf; [6]) | Velvetleaf plant response rating (velvetleaf; [7]) | Velvetleaf plant response rating (velvetleaf; [8]) | Plant response rating, Crabgrass (crabgrass; [1]) | Plant response rating, Crabgrass (crabgrass; [2]) | Crabgrass plant response rating (crabgrass; [3]) | Plant response rating, Crabgrass (crabgrass; [4]) | Plant response rating, Crabgrass (crabgrass; [5]) | Crabgrass plant response rating (crabgrass; [6]) | Crabgrass plant response rating (crabgrass; [7]) | Crabgrass plant response rating (crabgrass; [8])
